Biological target: T1, CYP4A (Homo sapiens, UniProt Q02928)
T1 construct: host or cells: bactosome, i.e. bacterial membrane preparation (own knowledge of the term)
T1 sequence (Q02928 5-519): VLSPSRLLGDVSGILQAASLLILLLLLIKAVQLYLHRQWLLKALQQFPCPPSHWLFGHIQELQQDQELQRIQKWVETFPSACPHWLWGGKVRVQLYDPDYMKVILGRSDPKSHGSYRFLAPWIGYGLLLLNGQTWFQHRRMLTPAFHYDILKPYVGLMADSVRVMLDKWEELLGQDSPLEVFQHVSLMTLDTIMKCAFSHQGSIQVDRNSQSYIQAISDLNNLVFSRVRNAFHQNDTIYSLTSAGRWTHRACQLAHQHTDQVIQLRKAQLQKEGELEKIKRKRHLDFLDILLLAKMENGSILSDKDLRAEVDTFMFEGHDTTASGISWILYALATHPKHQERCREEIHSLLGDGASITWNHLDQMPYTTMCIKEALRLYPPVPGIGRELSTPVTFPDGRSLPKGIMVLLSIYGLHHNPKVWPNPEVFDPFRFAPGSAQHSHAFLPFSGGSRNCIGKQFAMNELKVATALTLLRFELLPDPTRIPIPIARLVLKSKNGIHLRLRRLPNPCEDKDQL
Assay: CYP4A enzyme assay (Luciferin-ME luminescence, CYP4A bactosome)
Assay type: biochemical
Conditions: compound concentration 5 μM; 25%-50%; read-out: % Inhibition 25%-50%
Summary of the method: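 CYP4A bactosome preincubated 15 min at room temperature with compound (5 μM) in 100 mM KPO4, 0.1% BSA, 1 mM DTT. Luciferin-ME (5 mM) plus NADPH regeneration system added, 30 min at room temperature, then detection reagent for 15 min. Inhibition derived from luminescence versus controls.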

Q: For Cc1cc(N2CCN(C(=O)C3CCCN(S(=O)(=O)c4ccc(C(=O)N(C)C)cc4)C3)CC2)c2ccccc2n1 (stereo not shown) [Formula 101, N,N-dimethyl-4-(3-(1-(2-methylquinolin-4-yl)piperazine-4-carbonyl)piperidin-1-ylsulfonyl)benzamide], which inhibition at 5 µM is on record?
A: 25 to 50%

Q: O=C(C1CCCN(S(=O)(=O)c2c(F)c(F)c(F)c(F)c2F)C1)N1CCN(c2cc(C(F)(F)F)nc3ccccc23)CC1 (stereo not shown) [Formula 73, (1-(perfluorophenylsulfonyl)piperidin-3-yl) (4-(2-(trifluoromethyl)quinolin-4-yl)piperazin-1-yl) methanon] was tested. Which inhibition at 5 µM did it give?
A: 25 to 50%

Q: COC(=O)c1ccc(S(=O)(=O)N2CCCC(C(=O)N3CCN(c4cc(C)nc5ccccc45)CC3)C2)cc1 (stereo not shown) [Formula 37, methyl 4-(3-(1-(2-methylquinolin-4-yl)piperazine-4-carbonyl)piperidin-1-ylsulfonyl)benzoate] was tested. Which inhibition at 5 µM did it give?
A: 25 to 50%

Same assay, conditions: compound concentration 5 μM; 75% or more; read-out: % Inhibition 75% or more

Q: O=C(C1CCCN(S(=O)(=O)c2cccc(Br)c2)C1)N1CCN(c2ccnc3cc(F)ccc23)CC1 (stereo not shown) [Formula 62, (1-(3-bromophenylsulfonyl)piperidin-3-yl) (4-(7-fluoroquinolin-4-yl)piperazin-1-yl) methanone] was tested. Which inhibition at 5 µM did it give?
A: ≥ 75%

Q: How did the inhibition at 5 µM turn out when CC(=O)Nc1ccc(S(=O)(=O)N2CCC[C@H](C(=O)N3CCN(c4ccnc5cc(F)ccc45)CC3)C2)cc1 [Formula 47, (S)—N-(4-(3-(1-(7-fluoroquinolin-4-yl)piperazine-4-carbonyl)piperidin-1-ylsulfonyl)phenyl) acetamide] was run?
A: ≥ 75%

Q: For CCN(CC)c1ccc(S(=O)(=O)N2CCCC(C(=O)N3CCN(c4ccnc5ccccc45)CC3)C2)cc1 (stereo not shown) [Formula 83, (1-(4-(diethylamino)phenylsulfonyl)piperidin-3-yl) (4-(quinolin-4-yl)piperazin-1-yl)methanone], which inhibition at 5 µM is on record?
A: ≥ 75%

Q: Which inhibition at 5 µM does the source give for CN(C)c1cccc(S(=O)(=O)N2CCC[C@@H](C(=O)N3CCN(c4ccnc5cc(F)ccc45)CC3)C2)c1 [Formula 61, (R)-(1-(3-(dimethylamino)phenylsulfonyl)piperidin-3-yl) (4-(7-fluoroquinolin-4-yl)piperazin-1-yl) methanone] here?
A: ≥ 75%

Q: For O=C(C1CCCN(S(=O)(=O)c2ccc(-c3ccccc3)cc2)C1)N1CCN(c2ccnc3cc(F)ccc23)CC1 (stereo not shown) [Formula 55, (4-(7-fluoroquinolin-4-yl)piperazin-1-yl) (1-(4-phenylbenzenesulfonyl)piperidin-3-yl) methanone], which inhibition at 5 µM is on record?
A: ≥ 75%

Q: Which inhibition at 5 µM does the source give for O=C(C1CCCN(S(=O)(=O)c2cccc([N+](=O)[O-])c2)C1)N1CCN(c2ccnc3ccccc23)CC1 (stereo not shown) [Formula 82, (1-(3-nitrophenylsulfonyl)piperidin-3-yl) (4-(quinolin-4-yl)piperazin-1-yl) methanone] here?
A: ≥ 75%

Q: With COc1cccc(S(=O)(=O)N2CCCC(C(=O)N3CCN(c4ccnc5cc(F)ccc45)CC3)C2)c1 (stereo not shown) [Formula 58, (4-(7-fluoroquinolin-4-yl)piperazin-1-yl) (1-(3-methoxyphenylsulfonyl)piperidin-3-yl) methanone] as the molecule, how does the inhibition at 5 µM read?
A: ≥ 75%

Q: O=C(C1CCCN(S(=O)(=O)c2ccc(-c3ccccc3)cc2)C1)N1CCN(c2ccnc3ccccc23)CC1 (stereo not shown) [Formula 84, (4-(quinolin-4-yl)piperazin-1-yl) (1-(4-phenylbenzenesulfonyl)piperidin-3-yl) methanone] was tested. Which inhibition at 5 µM did it give?
A: ≥ 75%

Q: Which inhibition at 5 µM does the source give for O=C(C1CCCN(S(=O)(=O)c2ccc(-c3cccnc3)cc2)C1)N1CCN(c2ccnc3cc(F)ccc23)CC1 (stereo not shown) [Formula 108, (4-(7-fluoroquinolin-4-yl)piperazin-1-yl) (1-(4-(pyridin-3-yl)phenylsulfonyl)piperidin-3-yl) methanone] here?
A: ≥ 75%

Q: Which inhibition at 5 µM does the source give for Cc1cc(N2CCN(C(=O)C3CCCN(S(=O)(=O)c4ccc([N+](=O)[O-])cc4)C3)CC2)c2ccccc2n1 (stereo not shown) [Formula 18, (4-(2-methylquinolin-4-yl)piperazin-1-yl) (1-(4-nitrophenylsulfonyl)piperidin-3-yl) methanone] here?
A: ≥ 75%

Same assay, conditions: compound concentration 5 μM; '50%-75%'; read-out: % Inhibition 50%-75%

Q: How did the inhibition at 5 µM turn out when COc1ccc2c(N3CCN(C(=O)C4CCCN(S(=O)(=O)c5ccc(F)cc5)C4)CC3)ccnc2c1 (stereo not shown) [Formula 89, (1-(4-fluorophenylsulfonyl)piperidin-3-yl) (4-(7-methoxyquinolin-4-yl)piperazin-1-yl) methanone] was run?
A: 50 to 75%

Q: Which inhibition at 5 µM does the source give for CN(C)c1ccc(S(=O)(=O)N2CCCC(C(=O)N3CCN(c4cc(C(F)(F)F)nc5ccccc45)CC3)C2)cc1 (stereo not shown) [Formula 67, (1-(4-(dimethylamino)phenylsulfonyl)piperidin-3-yl) (4-(2-(trifluoromethyl)quinolin-4-yl)piperazin-1-yl) methanone] here?
A: 50 to 75%

Q: Cc1cc(N2CCN(C(=O)C3CCCN(S(=O)(=O)c4ccc(C#N)cc4)C3)CC2)c2ccccc2n1 (stereo not shown) [Formula 35, 4-(3-(1-(2-methylquinolin-4-yl)piperazine-4-carbonyl)piperidin-1-ylsulfonyl)benzonitrile] was tested. Which inhibition at 5 µM did it give?
A: 50 to 75%

Q: For CC(=O)Nc1ccc(S(=O)(=O)N2CCCC(C(=O)N3CCN(c4cc(C(F)(F)F)nc5ccccc45)CC3)C2)cc1 (stereo not shown) [Formula 63, N-(4-(3-(1-(2-(trifluoromethyl)quinolin-4-yl)piperazine-4-carbonyl)piperidin-1-ylsulfonyl)phenyl) acetamide], which inhibition at 5 µM is on record?
A: 50 to 75%

Q: For COc1cccc(S(=O)(=O)N2CCCC(C(=O)N3CCN(c4cc(C)nc5ccccc45)CC3)C2)c1 (stereo not shown) [Formula 39, (1-(3-methoxyphenylsulfonyl)piperidin-3-yl) (4-(2-methylquinolin-4-yl)piperazin-1-yl) methanone], which inhibition at 5 µM is on record?
A: 50 to 75%

Q: How did the inhibition at 5 µM turn out when O=C(C1CCCN(S(=O)(=O)c2ccc(Oc3ccccc3)cc2)C1)N1CCN(c2ccnc3cc(Cl)ccc23)CC1 (stereo not shown) [Formula 9, (4-(7-chloroquinolin-4-yl)piperazin-1-yl) (1-((4-phenoxyphenyl)sulfonyl)piperidin-3-yl) methanone] was run?
A: 50 to 75%
